In article PMC9377006, “Discovery of Desmuramylpeptide NOD2 Agonists with Single-Digit Nanomolar Potency” (ACS Medicinal Chemistry Letters, 2022):

Legend:
human NOD2 = molecular target: T1, human NOD2 (Homo sapiens, UniProt Q9HC29); experiment: HEK-Blue NOD2 NF-κB SEAP reporter assay (NOD2 agonistic activity); type: cell-based
T1 construct: host or cells: HEK-Blue NOD2 cells (derived from HEK293)
Description: The synthesized desmuramylpeptides were evaluated for their dose-dependent NOD2 activity using the commercially available HEK-Blue NOD2 reporter cell line. This cell line is derived from HEK293 cells by cotransfection of human NOD2 and an NF-κB-inducible secreted embryonic alkaline phosphatase (SEAP). Activation of NOD2 and subsequently of NF-κB leads to the expression and secretion of SEAP, the level of which can be quantified colorimetrically. […]
two passages, 200 µg/mL Zeocin (Invivogen) was added to the medium every other passage to maintain selection pressure. The cells were incubated in a humidified atmosphere at 37 °C and 5% CO 2. […]
Aldrich), and 100 µg/mL streptomycin (Sigma -Aldrich).
The tested compounds were dissolved in DMSO and further di luted in culture medium to the desired final concentrations, such that the final DMSO concentration never exceeded 0.1%. […]
4.6 NOD1/NOD2-NF-kB reporter assay
HEK-Blue NOD2 or NOD1 cells were seeded (25,000 cells/well) in 96 -well plates in 100 µL HEK-Blue detection medium (Invivogen, San Diego, CA, USA) and treated with compounds ( 2 µM for fixed […]
the corresponding vehicle (0.1% DMSO). After 18 h of incubation (37 °C, 5% CO2), secreted embryonic alkaline phosphatase (SEAP) activity was determined spectrophotometrically as absorbance at 630 nm (BioTek Synergy microplate reader; Winooski, VT, USA). EC50 values were calculated using Prism software (version 9; GraphPad Software, CA, USA). The experiments were run in duplicates and repeated as at least three independent biological replicates. […]

K562 cancer cells = experiment: PBMC cytotoxicity against K562 cancer cells; type: cell-based
Description: In addition, we also investigated the ability of 40, both alone and in combination with LPS and IFN-γ, to induce direct and nonspecific cytolytic activity of PBMCs against cancer cells. For this purpose, we used a functional cytotoxicity assay based on the coincubation of preactivated PBMCs and fluorescently labeled K562 cancer cells.[33] Among the heterogeneous subpopulations of PBMCs, natural killer (NK) cells and, to a lesser extent, monocytes represent the main effector cell types in this assay. NK cells play an essential role in tumor and viral immunosurveillance, both through direct cytolytic destruction of aberrant cells and by facilitating the recruitment and activation of other immune cells through the secretion of cytokines.[34] In addition to their well-established role in cancer immunotherapy, NK cells thus also provide an attractive target in the development of vaccine adjuvants, particularly when Th1 cellular immune responses are preferred.[35] Other cell populations, however, may contribute to the magnitude of NK cell-mediated responses via cytokine secretion. To account for the contribution of these accessory cells and to more accurately represent in vivo conditions, the entire PBMC population was used instead of isolated NK cells.
Figure 3 2 and 40 synergize with LPS and IFN-γ to induce the cytotoxicity of PBMCs against K562 cancer cells. Following 18 h of stimulation of PBMCs with 2 (1 μM) or 40 (1 μM) in the presence or absence of LPS (1 μg/mL) and IFN-γ (200 U/mL) or the corresponding vehicle (0.1% DMSO; NT), K562 cells were added in a 40:1 effector to target cell ratio. Cytotoxicity was determined after 4 h of coincubation. IL-2 (200 U/mL) was used as the positive control. Data are shown as relative activities to vehicle-treated control (0.1% DMSO) and are the means ± SEMs of duplicates of two independent experiments. Statistical significance was determined by one-way ANOVA followed by Dunnet’s multiple-comparisons test; **, p < 0.01, ***, p < 0.001. […]
4.8 Peripheral blood mononuclear cell cytotoxicity
The PBMC cytotoxicity assays using K562 cells were performed as described previously, with some modifications.2 PBMCs were seeded (400,000 cells/well) in duplicates in 96 -well U-bottom plates and treated with 2 (1 µM) or 40 (1 µM), in the presence or absence of LPS (1 µg/mL) or IFN-γ (200 U/mL), IL-2 (200 U/mL), or the corresponding vehicle (0.1% DMSO) for 18 h. K562 were stained with carboxyfluorescein succinimidyl ester (CFSE, Invitrogen, Carlsbad, CA, USA), washed twice with complete medium, and added (10,000 cells/well) to the pre-treated PBMCs for a final effector cell to target tumor cell ratio of 40:1. After a 4 h coincubation (37 °C, 5% CO2), cells were stained with Sytox Blue dead cell stain (Invitrogen) and analyzed using an Attune NxT flow cytometer (Thermo Fisher Scientific, Waltham, MA, USA) and FlowJo software (Tree Star, Inc., Ashland, OR, USA). Cells that were positive for both CFSE and Sytox Blue were defined as dead K562 cells. PBMCs alone and CFSE-labeled K562 cells alone were also treated with the compounds at the same concentrations and stained with Sytox Blue to exclude any direct cytotoxicity of the compounds towards the PBMCs and cancer cells.
4.9 Cytokine release from peripheral blood mononuclear cells […]

T1 sequence (Q9HC29 whole entry): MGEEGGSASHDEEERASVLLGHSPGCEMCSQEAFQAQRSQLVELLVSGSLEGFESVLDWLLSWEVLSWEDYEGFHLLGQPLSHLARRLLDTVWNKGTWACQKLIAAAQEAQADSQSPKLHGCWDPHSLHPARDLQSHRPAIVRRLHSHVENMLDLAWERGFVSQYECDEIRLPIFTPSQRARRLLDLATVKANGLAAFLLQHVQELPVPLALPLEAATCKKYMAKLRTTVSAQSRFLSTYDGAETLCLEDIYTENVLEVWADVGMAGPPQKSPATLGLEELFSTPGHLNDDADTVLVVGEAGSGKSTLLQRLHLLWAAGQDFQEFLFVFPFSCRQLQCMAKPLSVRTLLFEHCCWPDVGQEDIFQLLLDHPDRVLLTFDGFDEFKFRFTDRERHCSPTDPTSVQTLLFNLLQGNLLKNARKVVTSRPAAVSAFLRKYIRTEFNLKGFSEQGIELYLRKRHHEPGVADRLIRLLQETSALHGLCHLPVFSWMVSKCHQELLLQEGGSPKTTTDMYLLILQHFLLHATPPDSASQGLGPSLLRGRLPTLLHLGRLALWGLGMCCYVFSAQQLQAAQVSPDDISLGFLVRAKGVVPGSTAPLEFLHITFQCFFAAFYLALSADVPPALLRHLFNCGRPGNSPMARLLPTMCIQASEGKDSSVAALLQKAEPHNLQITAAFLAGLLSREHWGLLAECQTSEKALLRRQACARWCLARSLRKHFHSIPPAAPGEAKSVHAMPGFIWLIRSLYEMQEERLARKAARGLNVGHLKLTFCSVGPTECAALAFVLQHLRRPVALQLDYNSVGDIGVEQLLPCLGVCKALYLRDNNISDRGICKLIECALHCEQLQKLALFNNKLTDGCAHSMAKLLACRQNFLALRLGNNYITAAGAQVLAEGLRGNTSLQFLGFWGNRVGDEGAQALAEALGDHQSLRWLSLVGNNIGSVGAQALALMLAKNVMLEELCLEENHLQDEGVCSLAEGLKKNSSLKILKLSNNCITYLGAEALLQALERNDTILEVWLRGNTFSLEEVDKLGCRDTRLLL

CCOC(=O)CC[C@@H](NC(=O)[C@@H](NC(=O)CNC(=O)/C=C/c1ccc(OC(=O)CC23CC4CC(CC(C4)C2)C3)c(OC)c1)C(C)C)C(=O)OCC [Compound 40]
EC50 (human NOD2; HEK-Blue NOD2 cells, 18 h, means ± SEMs of at least three independent experiments, 8 or 16 concentrations (0.1 nM to 20 μM)): 4.5 ± 1.1 nM | improvement of activity relative to 1 (human NOD2; NOD2 EC50 versus compound 1): 20 factor | LPS- and IFN-γ-induced cytotoxic activity of PBMCs against K562, costimulation (K562 cancer cells; 1 μM + LPS 1 μg/mL or IFN-γ 200 U/mL, 18 h, 40:1, 4 h): significantly enhanced | cytotoxic activity of PBMCs with costimuli, compared to 2 (K562 cancer cells; 1 μM + LPS or IFN-γ): slightly stronger activity | increase in the ratio of dead K562 cells (K562 cancer cells; PBMCs stimulated 18 h with 1 μM compound alone, 40:1 effector to target ratio, 4 h coincubation, relative to vehicle): 1.28 fold | apoptosis in K562 cells in the absence of PBMCs (K562 cancer cells; cotreatment with 40 and IFN-γ, data not shown): did not induce apoptosis
